Data on eight compounds can be found in PubChem BioAssay (NCI).

Test systems include SK-MEL-5 melanoma; MCF7 breast; CAKI-1 renal; BT-549 breast; U251 CNS; CCRF-CEM leukemia; SR leukemia; MOLT-4 leukemia; MDA-MB-231 breast; UO-31 renal.
Holding throughout (experiment): NCI tumour cell line growth inhibition, 48 h

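All cell lines were grown in 96-well plates and treated with compound for 48 hours. At the GI50, growth is halved. At the TGI there is no net growth.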

Consider `CC1(C)C(=O)/C(=C\c2cccnc2)C[C@]2(C)[C@H]3CC[C@@H]4[C@H]5[C@H](C(=O)/C=C/c6cccnc6)CC[C@]5(C(=O)O)CC[C@@]4(C)[C@]3(C)CC[C@@H]12`, for which the GI50 with SK-MEL-5 melanoma is 1.8 µM; in the assay on MCF7 breast, 2.56 µM; with CAKI-1 renal, 1.66 µM; with BT-549 breast, 1.95 µM; with U251 CNS, 1.74 µM; in the assay on CCRF-CEM leukemia, 1.44 µM. Also, the figures for the GI50 with SR leukemia and in the assay on MOLT-4 leukemia were 2.03 µM and 2.22 µM, respectively. Further, the TGI is 3.22 µM in the assay on SK-MEL-5 melanoma; 10.7 µM with MCF7 breast; 3.38 µM in the assay on CAKI-1 renal; 4.41 µM with BT-549 breast; 3.26 µM in the assay with U251 CNS; 8.07 µM with CCRF-CEM leukemia. The results for the TGI in the assay on SR leukemia and with MOLT-4 leukemia were 29.7 µM and 11.5 µM, respectively.

On to `COc1c(C(=O)/C=C/c2ccccc2)c(O)cc2occc12`, for which the GI50 was 3.87 µM in the assay with SK-MEL-5 melanoma; 3.52 µM in the assay on MCF7 breast; 8.07 µM with CAKI-1 renal; 7.72 µM in the assay on BT-549 breast; 4.39 µM with U251 CNS; 4.38 µM in the assay with MDA-MB-231 breast. In addition, the GI50 was 3.14 µM in the assay with UO-31 renal, 3.27 µM in the assay with SR leukemia and 3.36 µM in the assay on MOLT-4 leukemia. Moreover, the TGI is 16.3 µM with SK-MEL-5 melanoma; 17.2 µM in the assay with MCF7 breast; 29.9 µM in the assay on CAKI-1 renal; 27.8 µM with BT-549 breast; 16.1 µM in the assay with U251 CNS; 17.5 µM with MDA-MB-231 breast. The TGI was 11.8 µM in the assay on UO-31 renal, 22.2 µM in the assay on SR leukemia and > 100 µM in the assay on MOLT-4 leukemia.

As to `CC(C)c1ccc(-c2cc(-c3cn[nH]c3-c3ccccn3)ccn2)cc1`, the GI50 with SK-MEL-5 melanoma is 6.65 µM; in the assay on MCF7 breast, > 18.9 µM; with CAKI-1 renal, 19.1 µM; in the assay on BT-549 breast, 10.6 µM; in the assay with U251 CNS, 11.8 µM; in the assay on MDA-MB-231 breast, > 16.5 µM. In addition, the results for the GI50 in the assay with CCRF-CEM leukemia, with UO-31 renal and with MOLT-4 leukemia were 10.8 µM, 6.6 µM and 8.06 µM, respectively. Also, the TGI in the assay on SK-MEL-5 melanoma is > 16.6 µM; in the assay with MCF7 breast it was > 25 µM; with CAKI-1 renal it was > 25 µM; in the assay with BT-549 breast, > 25 µM; in the assay on U251 CNS it was > 25 µM; in the assay with MDA-MB-231 breast, > 25 µM. For the same compound, the values for the TGI with CCRF-CEM leukemia, with UO-31 renal and with MOLT-4 leukemia were > 25 µM, > 25 µM and > 24.1 µM, respectively.

For `Nc1ccccc1C#C/C=C\C#Cc1ccccc1N`, the GI50 in the assay on SK-MEL-5 melanoma was 1.95 µM; in the assay on MCF7 breast it was 9.98 µM; in the assay on CAKI-1 renal, 6.86 µM; with BT-549 breast, 11.5 µM; in the assay with U251 CNS it was 13.9 µM; in the assay with MDA-MB-231 breast, 12.5 µM. Also, the GI50 in the assay on CCRF-CEM leukemia is 3.93 µM; in the assay with UO-31 renal, 11.4 µM; in the assay with MOLT-4 leukemia, 1.04 µM. The TGI with SK-MEL-5 melanoma was 17.5 µM; with MCF7 breast it was > 100 µM; with CAKI-1 renal, 39 µM; in the assay on BT-549 breast, 41.2 µM; with U251 CNS, 32.2 µM; in the assay on MDA-MB-231 breast, 30.4 µM. In addition, the figures for the TGI in the assay with CCRF-CEM leukemia, in the assay on UO-31 renal and in the assay with MOLT-4 leukemia were 32.4 µM, 34.1 µM and 17.3 µM, respectively.

As for `C/C(=N\Nc1ccc(Cl)cn1)c1ccc2ccccc2n1`, the GI50 was 2.85 µM in the assay with MCF7 breast; 2.81 µM in the assay with CAKI-1 renal; 2.62 µM with BT-549 breast; 2.83 µM in the assay with U251 CNS; 3.36 µM with MDA-MB-231 breast; 0.513 µM with CCRF-CEM leukemia. Also, the GI50 is 1.74 µM with UO-31 renal, 1.68 µM in the assay with SR leukemia and 1.26 µM with MOLT-4 leukemia. For the same compound, the TGI was > 100 µM in the assay with MCF7 breast; 87.1 µM in the assay with CAKI-1 renal; > 100 µM in the assay on BT-549 breast; > 100 µM with U251 CNS; > 100 µM with MDA-MB-231 breast; > 100 µM with CCRF-CEM leukemia. Moreover, the values for the TGI in the assay with UO-31 renal, in the assay on SR leukemia and in the assay on MOLT-4 leukemia were 12.9 µM, 36.1 µM and > 100 µM, respectively.

`COc1ccc(C(=O)c2cc(C)c(OC)c(C)c2)cc1OC(=O)CCl`: the GI50 was < 0.01 µM with SK-MEL-5 melanoma; < 0.01 µM in the assay on MCF7 breast; < 0.01 µM in the assay with BT-549 breast; < 0.01 µM with U251 CNS; < 0.0112 µM with MDA-MB-231 breast; < 0.01 µM in the assay with CCRF-CEM leukemia. For the same compound, the GI50 was < 0.01 µM with SR leukemia and < 0.0158 µM in the assay with MOLT-4 leukemia. Besides, the TGI in the assay on SK-MEL-5 melanoma was 0.459 µM; with MCF7 breast it was > 100 µM; in the assay with BT-549 breast, 40.5 µM; in the assay with U251 CNS, > 100 µM; with MDA-MB-231 breast, > 100 µM; with CCRF-CEM leukemia, > 100 µM. Further, the TGI with UO-31 renal, with SR leukemia and in the assay with MOLT-4 leukemia was > 100 µM each time.

Consider `C=CCCCCC/C=C\[C@@H](O)C#CC#C/C=C/CO`, for which the GI50 in the assay with SK-MEL-5 melanoma is > 100 µM; in the assay with MCF7 breast, 32.7 µM; in the assay with CAKI-1 renal, > 100 µM; in the assay on BT-549 breast, 49.9 µM; with U251 CNS, 38.7 µM; in the assay on MDA-MB-231 breast, 40 µM. For the same compound, the GI50 was > 100 µM in the assay with UO-31 renal and 18.3 µM in the assay with MOLT-4 leukemia. Further, the TGI in the assay with SK-MEL-5 melanoma, with MCF7 breast, with CAKI-1 renal, with BT-549 breast, in the assay with U251 CNS and in the assay with MDA-MB-231 breast was > 100 µM each time. For the same compound, the TGI with UO-31 renal was > 100 µM; in the assay on MOLT-4 leukemia it was 43.8 µM.

Consider `CCOC(=O)C1CCN(S(=O)(=O)/N=C2/NC(=O)NC2=C(Cl)Cl)CC1`, for which the GI50 was 1.98 µM in the assay on SK-MEL-5 melanoma; 0.33 µM in the assay with MCF7 breast; 1.68 µM with BT-549 breast; 1.9 µM in the assay on U251 CNS; 1.94 µM with MDA-MB-231 breast; 1.23 µM in the assay on CCRF-CEM leukemia. Moreover, the GI50 in the assay with UO-31 renal is 1.73 µM; in the assay on SR leukemia it was 0.731 µM; with MOLT-4 leukemia, 1.88 µM. The TGI with SK-MEL-5 melanoma is 4.26 µM; in the assay on MCF7 breast it was 22 µM; in the assay with BT-549 breast it was 3.65 µM; in the assay on U251 CNS it was 3.47 µM; in the assay on MDA-MB-231 breast it was 3.54 µM; in the assay on CCRF-CEM leukemia, 3.16 µM. In addition, the TGI in the assay on UO-31 renal was determined as 4.02 µM; in the assay with SR leukemia it was 4.96 µM; in the assay with MOLT-4 leukemia, 4.46 µM.
